Consider 1 compound from patent publication US20210361224A1, “BIOLOGICAL GAS (VOCs) MEASURMENT DEVICE” (National University Corporation Tokyo Medical and Dental …, priority 2017, published 2021).

Like-named read-outs stand apart in the source and are kept apart here.

The conditions of data set [1]: compared with ethanol in exhaled breath, test subject ingested 0.4 g/kg of body weight of ethanol by drinking.
The conditions of data set [2]: palm of hand; 0.4 g of ethanol per kilogram of body weight orally ingested; measured 10 to 40 minutes after drinking.

`CCO` [ethanol]: the “delay until the amount of ethanol contained in skin gas peaks” value is listed as “approximately 23 minutes” in data set [1] (collector attached to back of hand) and “approximately 18 minutes” in data set [1] (collector attached to wrist on the palm side). Further, the “time after drinking at which concentration of ethanol released from the skin reached a peak value” in data set [2] is 32 min.
